Measurements: ChEMBL document CHEMBL3739323, “Design, synthesis, and biological evaluation of novel quinazolinyl-diaryl urea derivatives as potential anticancer agents” (Eur J Med Chem, 2016)

Tests used:
[1] = tested on: A549; experiment: Induction of apoptosis in human A549 cells assessed as increase in ROS production at 20 uM after 12 hrs by DCF staining based luminescence spectrometric analysis relative to control; type: functional
[2] = tested on: A549; experiment: Induction of apoptosis in human A549 cells assessed as necrotic cells at 10 uM after 6 hrs by Annexin-V-FITC/Propidium iodide staining based flow cytometric analysis (reference value: 0.28 +/- 0.09%); type: functional
[3] = tested on: A549; experiment: Induction of apoptosis in human A549 cells assessed as late apoptotic cells at 5 uM after 48 hrs by Annexin-V/Propidium iodide dual staining based flow cytometric analysis (reference value: 1.44 +/- 0.43%); type: functional
[4] = tested on: A549; experiment: Induction of apoptosis in human A549 cells assessed as late apoptotic cells at 5 uM after 6 hrs by Annexin-V-FITC/Propidium iodide staining based flow cytometric analysis (reference value: 0.41 +/- 0.19%); type: functional
[5] = tested on: A549; experiment: Induction of apoptosis in human A549 cells assessed as necrotic cells at 20 uM after 48 hrs by Annexin-V/Propidium iodide dual staining based flow cytometric analysis (reference value: 2.57 +/- […]%); type: functional
[6] = tested on: A549; experiment: Induction of apoptosis in human A549 cells assessed as viable cells at 10 uM after 6 hrs by Annexin-V-FITC/Propidium iodide staining based flow cytometric analysis (reference value: 95.48 +/- 2.03%); type: functional; conditions: A549, 6 h, read-out: Activity
[7] = Antiproliferative activity against human MGC803 cells by MTT assay; type: functional, cell-based; conditions: MGC-803
[8] = tested on: A549; experiment: Cell cycle arrest in human A549 cells assessed as accumulation at S phase at 10 uM by propidium iodide staining based flow cytometric analysis (reference value: 23.41 +/- 2.19%); type: functional
[9] = tested on: A549; experiment: Disruption of mitochondrial membrane potential in human A549 cells assessed as ratio of green to red fluorescence intensity at 20 uM after 12 hrs by JC-1 staining based flow cytometric analysis; type: functional
[10] = tested on: A549; experiment: Induction of apoptosis in human A549 cells assessed as upregulation of Bax expression after 48 hrs by Western blot analysis; type: functional, cell-based
[11] = tested on: A549; experiment: Induction of apoptosis in human A549 cells assessed as late apoptotic cells at 20 uM after 48 hrs by Annexin-V/Propidium iodide dual staining based flow cytometric analysis (reference value: 1.44 +/- 0.43%); type: functional
[12] = tested on: A549; experiment: Induction of apoptosis in human A549 cells assessed as late apoptotic cells at 10 uM after 48 hrs by Annexin-V/Propidium iodide dual staining based flow cytometric analysis (reference value: 1.44 +/- 0.43%); type: functional
[13] = tested on: A549; experiment: Cell cycle arrest in human A549 cells assessed as accumulation at G0/G1 phase at 10 uM by propidium iodide staining based flow cytometric analysis (reference value: 63.82 +/- 2.66%); type: functional
[14] = Cytotoxicity against human BEAS2B cells by MTT assay; type: cell-based; conditions: BEAS-2B
[15] = tested on: A549; experiment: Induction of apoptosis in human A549 cells assessed as necrotic cells at 5 uM after 6 hrs by Annexin-V-FITC/Propidium iodide staining based flow cytometric analysis (reference value: 0.28 +/- 0.09%); type: functional
[16] = tested on: A549; experiment: Induction of apoptosis in human A549 cells assessed as viable cells at 5 uM after 6 hrs by Annexin-V-FITC/Propidium iodide staining based flow cytometric analysis (reference value: 95.48 +/- 2.03%); type: functional; conditions: A549, 6 h, read-out: Activity
[17] = tested on: A549; experiment: Antiproliferative activity against human A549 cells by MTT assay; type: functional, cell-based
[18] = tested on: A549; experiment: Induction of apoptosis in human A549 cells assessed as increase in ROS production at 20 uM after 6 hrs by DCF staining based luminescence spectrometric analysis relative to control; type: functional
[19] = tested on: A549; experiment: Induction of apoptosis in human A549 cells assessed as early apoptotic cells at 5 uM after 6 hrs by Annexin-V-FITC/Propidium iodide staining based flow cytometric analysis (reference value: 3.83 +/- 0.49%); type: functional
[20] = tested on: A549; experiment: Induction of cell cycle arrest in human A549 cells assessed as downregulation of p-Rb(Ser807/811) expression after 48 hrs by Western blot analysis; type: functional, cell-based
[21] = tested on: A549; experiment: Induction of cell cycle arrest in human A549 cells assessed as downregulation of p-Rb(Ser780) expression after 48 hrs by Western blot analysis; type: functional, cell-based
[22] = tested on: A549; experiment: Induction of apoptosis in human A549 cells assessed as early apoptotic cells at 20 uM after 48 hrs by Annexin-V/Propidium iodide dual staining based flow cytometric analysis (reference value: 3.53 +/- 0.89%); type: functional
[23] = tested on: A549; experiment: Induction of apoptosis in human A549 cells assessed as necrotic cells at 10 uM after 48 hrs by Annexin-V/Propidium iodide dual staining based flow cytometric analysis (reference value: 2.57 +/- 0.39%); type: functional
[24] = tested on: A549; experiment: Effect on total Rb level in human A549 cells after 48 hrs by Western blot analysis; type: ADME, cell-based; conditions: a549, 48 h
[25] = tested on: A549; experiment: Induction of apoptosis in human A549 cells assessed as viable cells at 10 uM after 48 hrs by Annexin-V-FITC/Propidium iodide staining based flow cytometric analysis (reference value: 92.46 +/- 4.23%); type: functional; conditions: A549, 48 h, read-out: Activity
[26] = tested on: A549; experiment: Induction of apoptosis in human A549 cells assessed as viable cells at 20 uM after 48 hrs by Annexin-V/Propidium iodide dual staining based flow cytometric analysis (reference value: 92.46 +/- 4.23%); type: functional; conditions: A549, 48 h, read-out: Activity
[27] = tested on: HepG2; experiment: Antiproliferative activity against human HepG2 cells by MTT assay; type: functional, cell-based
[28] = tested on: A549; experiment: Cell cycle arrest in human A549 cells assessed as accumulation at G0/G1 phase at 20 uM by propidium iodide staining based flow cytometric analysis (reference value: 63.82 +/- 2.66%); type: functional
[29] = target: RAF proto-oncogene serine/threonine-protein kinase (Homo sapiens) (UniProt P04049); experiment: Inhibition of c-Raf in human A549 cells assessed as downregulation of phosphorylated ERK1/2 expression after 48 hrs by Western blot analysis; type: cell-based
Chain of RAF proto-oncogene serine/threonine-protein kinase (Homo sapiens) (P04049 whole entry): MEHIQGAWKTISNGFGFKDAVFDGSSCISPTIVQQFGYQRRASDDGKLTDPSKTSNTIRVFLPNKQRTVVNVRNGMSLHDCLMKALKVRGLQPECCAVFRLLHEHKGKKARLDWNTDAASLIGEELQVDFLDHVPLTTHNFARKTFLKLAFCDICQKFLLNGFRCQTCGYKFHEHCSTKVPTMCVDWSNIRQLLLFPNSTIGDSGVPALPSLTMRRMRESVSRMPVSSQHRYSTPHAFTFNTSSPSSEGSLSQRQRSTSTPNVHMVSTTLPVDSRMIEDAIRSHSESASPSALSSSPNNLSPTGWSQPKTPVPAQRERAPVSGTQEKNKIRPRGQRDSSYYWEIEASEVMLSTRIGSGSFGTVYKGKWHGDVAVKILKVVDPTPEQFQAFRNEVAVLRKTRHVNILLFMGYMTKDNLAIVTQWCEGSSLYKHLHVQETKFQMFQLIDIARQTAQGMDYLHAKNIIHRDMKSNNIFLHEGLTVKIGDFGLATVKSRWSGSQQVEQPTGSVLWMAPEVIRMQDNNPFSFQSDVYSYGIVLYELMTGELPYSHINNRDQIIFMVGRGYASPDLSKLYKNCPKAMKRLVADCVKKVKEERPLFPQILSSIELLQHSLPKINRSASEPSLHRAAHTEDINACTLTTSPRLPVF

[30] = tested on: A549; experiment: Induction of apoptosis in human A549 cells assessed as viable cells at 5 uM after 48 hrs by Annexin-V-FITC/Propidium iodide staining based flow cytometric analysis (reference value: 92.46 +/- 4.23%); type: functional; conditions: A549, 48 h, read-out: Activity
[31] = tested on: A549; experiment: Cell cycle arrest in human A549 cells assessed as accumulation at G2/M phase at 20 uM by propidium iodide staining based flow cytometric analysis (reference value: 12.77 +/- 1.55%); type: functional
[32] = tested on: A549; experiment: Induction of apoptosis in human A549 cells assessed as necrotic cells at 5 uM after 48 hrs by Annexin-V/Propidium iodide dual staining based flow cytometric analysis (reference value: 2.57 +/- 0.39%); type: functional
[33] = tested on: A549; experiment: Cell cycle arrest in human A549 cells assessed as accumulation at S phase at 20 uM by propidium iodide staining based flow cytometric analysis (reference value: 23.41 +/- 2.19%); type: functional
[34] = tested on: A549; experiment: Induction of apoptosis in human A549 cells assessed as downregulation of Bcl-2 expression after 48 hrs by Western blot analysis; type: functional, cell-based
[35] = tested on: A549; experiment: Induction of apoptosis in human A549 cells assessed as early apoptotic cells at 5 uM after 48 hrs by Annexin-V/Propidium iodide dual staining based flow cytometric analysis (reference value: 3.53 +/- 0.89%); type: functional

IC50 [17]: 5.21 µM
IC50 [27]: 6.85 µM
inhibition [29]: Dose-dependent effect
SMILES: COc1cc2ncnc(NCc3cccc(NC(=O)Nc4ccc(C(C)(C)C)cc4)c3)c2cc1OC
Activity [1]: 80.9%
Activity [2]: 0.56%
Activity [3]: 7.84%
Activity [4]: 5.97%
Activity [5]: 42.2%
viability at 10 µM [6]: 81.8%
IC50 [7]: 6.79 µM
Activity [8]: 6.91%
Ratio [9]: 75
Activity [10]: Dose-dependent effect
Activity [11]: 5.65%
Activity [12]: 7.83%
Activity [13]: 85.44%
IC50 [14]: 26.5 µM
Activity [15]: 0.44%
viability at 5 µM [16]: 89.4%
Activity [18]: 54.3%
Activity [19]: 4.21%
Activity [20]: Dose-dependent effect
Activity [21]: Dose-dependent effect
Activity [22]: 0.57%
Activity [23]: 22.9%
Activity [24]: Non-toxic
viability at 10 µM [25]: 67.5%
viability at 20 µM [26]: 51.6%
Activity [28]: 95.33%
viability at 5 µM [30]: 75.4%
Activity [31]: 1.07%
Activity [32]: 14.2%
Activity [33]: 3.6%
Activity [34]: Dose-dependent effect
Activity [35]: 2.54%
